Values after ≈ are worked out from the molar mass of the structure shown.
Tested on: GAS
Settings: tested with GAS

Molecule `CC[C@H](C)[C@H](NC(=O)[C@H](CCCCN)NC(=O)[C@H](CCC(=O)O)NC(=O)[C@H](CCCCN)NC(=O)[C@H](CO)NC(=O)[C@H](CCCCN)NC(=O)[C@H](CCCNC(=N)N)NC(=O)[C@H](Cc1ccccc1)NC(=O)[C@H](Cc1ccccc1)NC(=O)[C@H](CC(=O)O)NC(=O)CNC(=O)[C@H](CC(C)C)NC(=O)[C@@H](N)CC(C)C)C(=O)NCC(=O)N[C@@H](CCCCN)C(=O)N[C@@H](CCC(=O)O)C(=O)N[C@@H](Cc1ccccc1)C(=O)N[C@@H](CCCCN)C(=O)N[C@@H](CCCNC(=N)N)C(=O)N[C@H](C(=O)N[C@H](C(=O)N[C@@H](CCC(N)=O)C(=O)N[C@@H](CCCNC(=N)N)C(=O)N[C@H](C(=O)N[C@@H](CCCCN)C(=O)N[C@@H](CC(=O)O)C(=O)N[C@@H](Cc1ccccc1)C(=O)N[C@@H](CC(C)C)C(=O)N[C@@H](CCCNC(=N)N)C(=O)N[C@@H](CC(N)=O)C(=O)N[C@@H](CC(C)C)C(=O)N[C@H](C(=O)N1CCC[C@H]1C(=O)N[C@@H](CCCNC(=N)N)C(=O)N[C@H](C(=O)N[C@@H](CCC(=O)O)C(=O)N[C@@H](CO)C(=O)O)[C@@H](C)O)C(C)C)[C@@H](C)CC)C(C)C)[C@@H](C)CC` [Synthetic LL-37 peptide] has an MBC of 16 µM (≈ 71.9 µg/mL) and an MIC of 16 µM (≈ 71.9 µg/mL).

Source: patent US12447188B2, “Compositions and methods for the antiseptic treatment of biofilms on mammalian tissue” (Avadim Health IP, Inc., priority 2019, dated 2025)
